# From ChEMBL document CHEMBL1134628, “Are free energy calculations useful in practice? A comparison with rapid scoring functions for the p38 MAP kinase protein system” (J Med Chem, 2001)
# Biological target: MAP kinase p38 (Homo sapiens, UniProt O15264+Q15759+Q16539+P53778)
# Assay: Binding affinity against p38 MAP kinase system
# Type: protein assay
row,Structure (SMILES),pIC50
1,O=c1ncn2nc(Sc3ccccc3)ccc2c1-c1c(Cl)cccc1Cl,6.602
2,O=c1ncn2nc(Sc3ccc(Cl)c(Cl)c3)ccc2c1-c1c(Cl)cccc1Cl,6.097
3,Cc1ccc(Sc2ccc3c(-c4c(Cl)cccc4Cl)c(=O)ncn3n2)cc1,5.854
4,O=c1ncn2nc(Sc3cccc(Cl)c3)ccc2c1-c1c(Cl)cccc1Cl,6.553
5,O=c1ncn2nc(Sc3cccc(F)c3)ccc2c1-c1c(Cl)cccc1Cl,6.347
6,Cc1cc(Cl)ccc1Sc1ccc2c(-c3c(Cl)cccc3Cl)c(=O)ncn2n1,6.745
7,O=c1ncn2nc(Sc3ccccc3O)ccc2c1-c1c(Cl)cccc1Cl,6.444
8,Cc1cccc(Sc2ccc3c(-c4c(Cl)cccc4Cl)c(=O)ncn3n2)c1,5.854
9,Nc1cc(F)ccc1Sc1ccc2c(-c3c(Cl)cccc3Cl)c(=O)ncn2n1,6.658
10,Cc1ccccc1Sc1ccc2c(-c3c(Cl)cccc3Cl)c(=O)ncn2n1,6.699
11,O=c1ncn2nc(Sc3ccccc3Br)ccc2c1-c1c(Cl)cccc1Cl,6.602
12,O=c1ncn2nc(Sc3ccc(F)cc3)ccc2c1-c1c(Cl)cccc1Cl,7
13,Cc1ccc(Sc2ccc3c(-c4c(Cl)cccc4Cl)c(=O)ncn3n2)cc1C,5.721
14,Cc1ccc(Sc2ccc3c(-c4c(Cl)cccc4Cl)c(=O)ncn3n2)c(C)c1,6.577
15,O=c1ncn2nc(Sc3ccc(F)cc3Cl)ccc2c1-c1c(Cl)cccc1Cl,7.444
16,O=c1ncn2nc(Sc3ccc(F)c(Cl)c3)ccc2c1-c1c(Cl)cccc1Cl,6.301
